Each structure is given as a SMILES string. A value given as a limit tells only on which side of the number the result lay.

This experiment deals with T1, c-Met (Homo sapiens, UniProt P08581).
T1 construct: A PCR product covering residues 1058-1365 of c-Met (c-Met kinase domain) is generated; made in house; host or cells: Baculovirus cells (baculovirus/insect-cell expression)
T1 sequence (P08581 1058-1365): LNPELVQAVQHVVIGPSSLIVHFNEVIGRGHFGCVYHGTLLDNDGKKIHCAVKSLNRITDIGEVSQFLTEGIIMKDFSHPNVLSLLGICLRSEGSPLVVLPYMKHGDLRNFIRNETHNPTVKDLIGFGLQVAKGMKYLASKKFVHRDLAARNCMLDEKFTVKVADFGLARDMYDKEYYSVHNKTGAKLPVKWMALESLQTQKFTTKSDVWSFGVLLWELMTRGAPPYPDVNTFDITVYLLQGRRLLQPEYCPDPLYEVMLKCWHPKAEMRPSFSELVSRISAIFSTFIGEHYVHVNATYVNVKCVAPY
The experiment can be described thus: c-Met Receptor Assay (HTRF kinase assay with GST-cMet (P) enzyme, gastrin and ATP). Format: biochemical. The protocol:
Cloning, Expression and Purification of c-Met Kinase Domain
Alternative purification of human GST-cMET from Baculovirus cells
The resin is washed with 10 column volumes (100 mL) of Lysis Buffer. […] The elution is collected as 15 mL fractions. Aliquots of the elution fractions are run on SDS PAGE (12% Tris Glycine gel, Invitrogen, #EC6005BOX). The gel is stained with 0.25% Coomassie Blue stain. Fractions with GST-cMET are concentrated with a Vivaspin 20 mL Concentrator (#VS2002; […]) to a final volume less than 2.0 ml. […] The GST-cMET is eluted with an isocratic run of the above buffer, with the eluent collected in 1.0 mL fractions. Fractions with significant OD280 readings are run on another 12% Tris Glycine gel. The peak tubes with GST-cMET are pooled and the OD280 is read with the column buffer listed above as the blank buffer. • Phosphorylation of the purified GST-cMET is performed by incubating the protein for 3 h at RT with the following:
After incubation, the solution is concentrated in a Vivaspin 20 ml Concentrator to a volume less than 2.00 ml. The solution is applied to the same Superdex 75 16/60 column used above after re-equilibration. The GST-cMET is eluted as described above. The elution fractions corresponding to the first eluted peak on the chromatogram are run on a 12% Tris Glycine gel, as above, to identify the fractions with GST-cMET. Fractions are pooled and the OD280 is read with the column buffer used as the blank.
A Kinase reaction Buffer is prepared as follows:
When the assay is carried out, freshly add:
The HTRF Buffer Contains: • 50 mM Tris-HCl (pH 7.5), 100 mM NaCl, 0.1% BSA, 0.05% Tween 20,5mM EDTA
Dilute GST-cMet (P) Enzyme in Kinase Buffer as Follows:
2. Assay Plate Preparation:
Then incubate the plate at RT for 30 min.
3. Prepare Gastrin and ATP working solution in kinase reaction buffer as follows:
Use Biomek FX to add 20 μl ATP and Gastrin working solution to the assay plate to start reaction, incubate the plate at RT for 1 h. 4. Transfer 5 μL reaction product at the end of 1 h into 80 μL HTRF buffer in black plate
A general note: Time-resolved FRET reads energy transfer from a long-lived donor to a nearby acceptor.
By Ki is commonly meant a dissociation constant, usually derived from enzyme kinetics or from competition with a known ligand. In the case of `Cc1c(C(=O)Nc2ccc(-c3cccc4[nH]nc(N)c34)c(F)c2)c(=O)n(-c2ccccc2)n1C` [Example 1, N-(4-(3-amino-1H-indazol-4-yl)-3-fluorophenyl)-1,5-dimethyl-3-oxo-2-phenyl-2,3-dihydro-1H-pyrazole-4-carboxamide], the affinity, expressed as Ki, was 21 nM.

Molecule `Cc1c(C(=O)Nc2ccc(-c3cccc4c(N)nccc34)c(F)c2)c(=O)n(-c2ccccc2)n1C` [Example 2, N-(4-(1-amino-5-isoquinolinyl)-3-fluorophenyl)-1,5-dimethyl-3-oxo-2-phenyl-2,3-dihydro-1H-pyrazole-4-carboxamide] came in with a Ki of 28 nM.

In turn, `Cc1c(C(=O)Nc2ccc(-c3cccc4c(N)nccc34)c(F)c2)c(=O)n(-c2ccccc2)n1CC(C)(C)O` [Example 3, N-(4-(1-amino-5-isoquinolinyl)-3-fluorophenyl)-1-(2-hydroxy-2-methylpropyl)-5-methyl-3-oxo-2-phenyl-2,3-dihydro-1H-pyrazole-4-carboxamide] displayed a Ki of 56 nM.

For the molecule `Cc1c(C(=O)Nc2ccc(-c3cccc4cnccc34)c(F)c2)c(=O)n(-c2ccccc2)n1C` [Example 4, N-(3-fluoro-4-(5-isoquinolinyl)phenyl)-1,5-dimethyl-3-oxo-2-phenyl-2,3-dihydro-1H-pyrazole-4-carboxamide], affinity was put at a Ki of 73 nM.

`Cc1c(C(=O)Nc2ccc(-c3cccc4[nH]nc(N)c34)c(F)c2)c(=O)n(-c2ccccc2)n1CC(C)(C)O` [Example 5, N-(4-(3-amino-1H-indazol-4-yl)-3-fluorophenyl)-1-(2-hydroxy-2-methylpropyl)-5-methyl-3-oxo-2-phenyl-2,3-dihydro-1H-pyrazole-4-carboxamide] displayed a Ki of 85 nM.

Turning to `Cc1c(C(=O)Nc2ccc(-c3cccc4cnccc34)c(F)c2)c(=O)n(-c2ccccc2)n1CC(C)(C)O` [Example 6, N-(3-fluoro-4-(5-isoquinolinyl)phenyl)-1-(2-hydroxy-2-methylpropyl)-5-methyl-3-oxo-2-phenyl-2,3-dihydro-1H-pyrazole-4-carboxamide], the Ki was 142 nM.

Take `Cc1c(C(=O)Nc2ccc(-c3cccc4cnccc34)cc2F)c(=O)n(-c2ccccc2)n1CC(C)(C)O` [Example 7, N-(2-fluoro-4-(5-isoquinolinyl)phenyl)-1-(2-hydroxy-2-methylpropyl)-5-methyl-3-oxo-2-phenyl-2,3-dihydro-1H-pyrazole-4-carboxamide]: the Ki worked out at 156 nM.

`Cc1c(C(=O)Nc2ccc(-c3cccc4[nH]nc(N)c34)cc2)c(=O)n(-c2ccccc2)n1CC(C)(C)O` [Example 8, N-(4-(3-amino-1H-indazol-4-yl)phenyl)-1-(2-hydroxy-2-methylpropyl)-5-methyl-3-oxo-2-phenyl-2,3-dihydro-1H-pyrazole-4-carboxamide] returned a Ki of 252 nM.

`Cc1c(C(=O)Nc2ccc(-c3nncc4cnccc34)c(F)c2)c(=O)n(-c2ccccc2)n1C` [Example 9, N-(3-fluoro-4-pyrido[3,4-d]pyridazin-1-ylphenyl)-1,5-dimethyl-3-oxo-2-phenyl-2,3-dihydro-1H-pyrazole-4-carboxamide] gave a Ki of 2380 nM.

With `Cc1cc(NC(=O)c2c(C)n(CC(C)(C)O)n(-c3ccccc3)c2=O)ccc1-c1cccc2cnccc12` [Example 10, 1-(2-Hydroxy-2-methylpropyl)-N-(4-(5-isoquinolinyl)-3-methylphenyl)-5-methyl-3-oxo-2-phenyl-2,3-dihydro-1H-pyrazole-4-carboxamide], the Ki amounted to 373 nM.

Molecule `Cc1c(C(=O)Nc2ccc(-c3cccc4cnccc34)c(F)c2)c(=O)n(-c2ccccc2)n1C[C@H](C)O` [Example 11, N-(3-fluoro-4-(isoquinolin-5-yl)phenyl)-1-((S)-2-hydroxypropyl)-5-methyl-3-oxo-2-phenyl-2,3-dihydro-1H-pyrazole-4-carboxamide] came in with a Ki of 47 nM.

Regarding `Cc1c(C(=O)Nc2ccc(-c3cccc4cnccc34)c(F)c2)c(=O)n(-c2ccccc2)n1C[C@@H](C)O` [Example 12, N-(3-fluoro-4-(isoquinolin-5-yl)phenyl)-1-((R)-2-hydroxypropyl)-5-methyl-3-oxo-2-phenyl-2,3-dihydro-1H-pyrazole-4-carboxamide], the affinity, expressed as Ki, was 62 nM.

`Cc1c(C(=O)Nc2ccc(-c3cccc4c(NCCCN5CCOCC5)nccc34)cc2)c(=O)n(-c2ccccc2)n1CC(C)(C)O` [Example 13, 1-(2-hydroxy-2-methylpropyl)-5-methyl-N-(4-(1-(3-morpholinopropylamino)-isoquinolin-5-yl)phenyl)-3-oxo-2-phenyl-2,3-dihydro-1H-pyrazole-4-carboxamide] showed an inhibition constant Ki of 3290 nM.

Turning to `Cc1c(C(=O)Nc2ccc(-c3cccc4c(NCCN(C)C)nccc34)cc2)c(=O)n(-c2ccccc2)n1CC(C)(C)O` [Example 14, N-(4-(1-(2-(dimethylamino)ethylamino)isoquinolin-5-yl)phenyl)-1-(2-hydroxy-2-methylpropyl)-5-methyl-3-oxo-2-phenyl-2,3-dihydro-1H-pyrazole-4-carboxamide], the Ki was more than 20000 nM.

In turn, `Cc1c(C(=O)Nc2ccc(-c3cccc4c(N(C)CCN(C)C)nccc34)cc2)c(=O)n(-c2ccccc2)n1CC(C)(C)O` [Example 15, N-(4-(1-((2-(dimethylamino)ethyl)(methyl)amino)isoquinolin-5-yl)phenyl)-1-(2-hydroxy-2-methylpropyl)-5-methyl-3-oxo-2-phenyl-2,3-dihydro-1H-pyrazole-4-carboxamide] returned a Ki of more than 6670 nM.

Turning to `Cc1c(C(=O)Nc2ccc(-c3cccc4c(N(C)CCCN(C)C)nccc34)cc2)c(=O)n(-c2ccccc2)n1CC(C)(C)O` [Example 16, N-(4-(1-((3-(dimethylamino)propyl)(methyl)amino)isoquinolin-5-yl)phenyl)-1-(2-hydroxy-2-methylpropyl)-5-methyl-3-oxo-2-phenyl-2,3-dihydro-1H-pyrazole-4-carboxamide], the affinity, expressed as Ki, was 1450 nM.

These data come from patent US7759344B2, “Bis-aryl amide derivatives and methods of use” (priority 2007, dated 2010).
